Where “and” joins values, the source holds several entries; their conditions need not be identical. Equal entries are not always repeated. Where two headings read alike, the source gives them in different places.
Legend:
HEK293T cells = experiment: Drug sensitivity assay (CellTiter-Glo viability) with or without MLN4924 pretreatment; assay type: cell-based, human; details: Supplementary Table 2; for EC50: Homo sapiens, HEK-293T, HEK293T viability, 72 h, compound alone, read-out: Cellular assays EC50; for Toxicity rescue: MLN4924-mediated cytotoxicity rescue, 10 µM used where n.d.
Experimental: HEK293T–Cas9 cells were resuspended at 0.15 × 10^6 ml^−1 treated with DMSO or 100 nM MLN4924 and plated on 384-well plates. After 2 h, the indicated drugs were dispensed with a D300 digital dispenser (Tecan). After 3 days of drug exposure, cell viability was assessed using the CellTiter-Glo luminescent assay (Promega, G7572) on an CLARIOstar Plus, MARS 3.4 (BMG LabTech). Cell viabilities were calculated relative to DMSO controls.

CDK12–cyclin K and DDB1 = target: T1, CDK12–cyclin K and DDB1 (Homo sapiens, UniProt Q16531+Q9NYV4, K965R); experiment: TR-FRET ternary complex formation assay (compound titration); assay type: binding; details: for TR-FRET signal at compound concentration: replicate titrations
T1 construct: His6–CDK12 (a.a. 713–1,052); full-length or beta-propeller B domain deletion (ΔBPB: a.a. 396–705 deleted) constructs of His6–DDB1ΔBPB, StrepII–Avi–DDB1, or His6–Spy–DDB1; made in house; host or cells: Trichoplusia ni High Five insect cells (baculovirus)
T1 sequence (Q9NYV4 713-1052 K965R): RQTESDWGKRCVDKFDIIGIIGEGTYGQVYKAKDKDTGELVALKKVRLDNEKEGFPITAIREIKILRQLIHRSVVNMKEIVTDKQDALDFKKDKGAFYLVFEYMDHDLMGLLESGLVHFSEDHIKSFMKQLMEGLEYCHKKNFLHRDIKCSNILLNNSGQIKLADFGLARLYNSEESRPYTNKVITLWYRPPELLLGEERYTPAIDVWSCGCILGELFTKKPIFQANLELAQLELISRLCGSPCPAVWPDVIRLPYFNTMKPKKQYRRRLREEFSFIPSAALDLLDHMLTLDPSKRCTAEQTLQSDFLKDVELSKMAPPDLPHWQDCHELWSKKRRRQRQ
T1 sequence (O75909 1-267 partner): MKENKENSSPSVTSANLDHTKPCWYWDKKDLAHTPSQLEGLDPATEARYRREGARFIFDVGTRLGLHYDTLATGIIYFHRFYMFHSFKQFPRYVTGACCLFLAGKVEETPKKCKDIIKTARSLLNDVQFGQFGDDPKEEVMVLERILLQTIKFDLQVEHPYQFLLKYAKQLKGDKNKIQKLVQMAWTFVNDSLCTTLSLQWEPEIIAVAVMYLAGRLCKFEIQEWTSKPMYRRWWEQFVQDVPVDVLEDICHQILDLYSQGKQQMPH
T1 sequence (Q16531 whole entry): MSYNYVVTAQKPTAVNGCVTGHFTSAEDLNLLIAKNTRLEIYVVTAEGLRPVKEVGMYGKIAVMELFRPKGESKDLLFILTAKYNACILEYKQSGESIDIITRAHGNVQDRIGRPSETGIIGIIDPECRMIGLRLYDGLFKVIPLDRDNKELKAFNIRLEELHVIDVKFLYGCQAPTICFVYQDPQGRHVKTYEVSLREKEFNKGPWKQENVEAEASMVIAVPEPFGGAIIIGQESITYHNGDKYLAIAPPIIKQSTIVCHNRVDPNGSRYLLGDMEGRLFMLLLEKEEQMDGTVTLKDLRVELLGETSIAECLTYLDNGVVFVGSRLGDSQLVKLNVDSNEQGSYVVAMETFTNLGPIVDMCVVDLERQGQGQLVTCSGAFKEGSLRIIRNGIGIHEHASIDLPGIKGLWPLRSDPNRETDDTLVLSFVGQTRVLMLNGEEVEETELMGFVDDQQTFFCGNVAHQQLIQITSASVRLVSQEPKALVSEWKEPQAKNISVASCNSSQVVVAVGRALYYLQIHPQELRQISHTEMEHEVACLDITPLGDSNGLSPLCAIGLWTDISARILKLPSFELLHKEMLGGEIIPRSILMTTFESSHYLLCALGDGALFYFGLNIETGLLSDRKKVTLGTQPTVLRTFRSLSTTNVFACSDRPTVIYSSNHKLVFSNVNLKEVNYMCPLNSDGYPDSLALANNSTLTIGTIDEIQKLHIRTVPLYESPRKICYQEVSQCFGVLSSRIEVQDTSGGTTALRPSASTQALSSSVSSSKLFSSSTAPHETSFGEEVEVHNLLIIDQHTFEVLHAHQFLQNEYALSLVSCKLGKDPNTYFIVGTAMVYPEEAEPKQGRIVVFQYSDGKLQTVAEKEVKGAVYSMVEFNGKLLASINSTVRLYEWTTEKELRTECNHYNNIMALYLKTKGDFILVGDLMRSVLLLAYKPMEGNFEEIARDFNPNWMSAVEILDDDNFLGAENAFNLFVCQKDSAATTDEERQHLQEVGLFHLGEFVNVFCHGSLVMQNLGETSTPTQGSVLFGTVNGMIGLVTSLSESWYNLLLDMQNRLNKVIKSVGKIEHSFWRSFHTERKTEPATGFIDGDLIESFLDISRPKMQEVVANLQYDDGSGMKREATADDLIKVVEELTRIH
Excerpt: A 70 μs delay was employed to reduce background fluorescence. The TR-FRET signal was obtained through calculating the ratio of 520 nm to 490 nm fluorescence, and Prism 9 (GraphPad) was used for further data analysis.

[1] = test system: cyclin K–eGFP degradation reporter; experiment: Cyclin K reporter stability analysis (dual-color cyclin K–eGFP reporter); assay type: cell-based, human
Experimental: HEK293T–Cas9 cells expressing the cyclin K–eGFP degradation reporter were resuspended at 1 × 10^6 ml^−1 and 50 µl of cell suspension was seeded in non-cell-culture-treated 384-well plates. Shortly after, cells were treated with drug or DMSO for 5 h. […] The fluorescent signal was quantified by flow cytometry (LSRFortessa flow cytometer, BD Biosciences). Using FlowJo (flow cytometry analysis software, BD Biosciences), the geometric mean of the eGFP and mCherry fluorescent signal for round and mCherry-positive cells was calculated. The ratio of eGFP to mCherry was normalized to the average of three DMSO-treated controls.

[2] = compound concentration 79.2001 nM
[3] = compound concentration 158.4 nM
[4] = compound concentration 309.6 nM
[5] = compound concentration 626.401 nM
[6] = compound concentration 1252.8 nM
[7] = compound concentration 9936.01 nM
[8] = compound concentration 20016 nM
[9] = in vitro complex formation, 50 nM CDK12–cyclin K, 100 nM DDB1, text and figures, read-out: TR-FRET EC50
[10] = sheet MOESM7, read-out: log TR-FRET EC50 (converted)
[11] = Supplementary Table 2, read-out: TR-FRET EC50 TR-FRET
[12] = Supplementary Table 2, HEK293T cycK-eGFP reporter, 5 h, read-out: Cellular assays DC50

| TR-FRET signal at compound concentration (CDK12–cyclin K and DDB1; compound concentration 4.68 nM) | TR-FRET signal at compound concentration (CDK12–cyclin K and DDB1; compound concentration 21.6 nM) | TR-FRET signal at compound concentration (CDK12–cyclin K and DDB1; compound concentration 36 nM) | TR-FRET signal at compound concentration (CDK12–cyclin K and DDB1; [2]) | TR-FRET signal at compound concentration (CDK12–cyclin K and DDB1; [3]) | TR-FRET signal at compound concentration (CDK12–cyclin K and DDB1; [4]) | TR-FRET signal at compound concentration (CDK12–cyclin K and DDB1; [5]) | TR-FRET signal at compound concentration (CDK12–cyclin K and DDB1; [6]) | TR-FRET signal at compound concentration (CDK12–cyclin K and DDB1; compound concentration 2448 nM) | TR-FRET signal at compound concentration (CDK12–cyclin K and DDB1; [7]) | TR-FRET signal at compound concentration (CDK12–cyclin K and DDB1; [8]) | EC50 (CDK12–cyclin K and DDB1; [9]) | EC50 (CDK12–cyclin K and DDB1; [10]) | EC50 (CDK12–cyclin K and DDB1; [11]) | DC50 [1, 12] | SMILES | EC50 (HEK293T cells) | Toxicity rescue (HEK293T cells) | further results |
| --- | --- | --- | --- | --- | --- | --- | --- | --- | --- | --- | --- | --- | --- | --- | --- | --- | --- | --- |
| 0.1674 and 0.1915 | 0.2669 and 0.3147 | 0.462 and 0.5388 | 0.7422 and 0.8389 | 1.142 and 1.242 | 1.648 and 1.83 | 2.134 and 2.344 | 2.523 and 2.691 | 2.757 and 2.986 | 2.985 and 3.212 | 3.04 and 3.2335 | 285 ± 19 nM | 285 nM |  |  | CC[C@H](CO)Nc1nc(NCCCCCc2ccccc2)c2ncn(C(C)C)c2n1 [DS02] | > 10000 nM | 0% | fold lower affinity than DS11 (CDK12–cyclin K and DDB1; TR-FRET complex formation): 5-10 fold; EC50 (CDK12–cyclin K and DDB1; source data sheet correlations, read-out: TR-FRET EC50): 285 nM; DC50 ([1]; source data sheet correlations, read-out: DC50): 1780 nM |
|  |  |  |  |  |  |  |  |  |  |  | 185 ± 22 nM | 185 nM | 185 nM | > 10000 nM | CCCCc1ccc(CNc2nc(N[C@H](CC)CO)nc3c2ncn3C(C)C)cc1 [DS03] | > 10000 nM | 0% | TR-FRET signal, individual replicate (CDK12–cyclin K and DDB1; compound concentration 4.68 nM): 0.1665 and 0.1912; TR-FRET signal, individual replicate (CDK12–cyclin K and DDB1; compound concentration 21.6 nM): 0.2604 and 0.3178; TR-FRET signal, individual replicate (CDK12–cyclin K and DDB1; compound concentration 36 nM): 0.4113 and 0.4843; TR-FRET signal, individual replicate (CDK12–cyclin K and DDB1; [2]): 0.6704 and 0.7869; TR-FRET signal, individual replicate (CDK12–cyclin K and DDB1; [3]): 0.9573 and 1.072; TR-FRET signal, individual replicate (CDK12–cyclin K and DDB1; [4]): 1.2282 and 1.396; TR-FRET signal, individual replicate (CDK12–cyclin K and DDB1; [5]): 1.549 and 1.7468; TR-FRET signal, individual replicate (CDK12–cyclin K and DDB1; [6]): 1.782 and 2.014; TR-FRET signal, individual replicate (CDK12–cyclin K and DDB1; compound concentration 2448 nM): 1.858 and 2.0804; TR-FRET signal, individual replicate (CDK12–cyclin K and DDB1; [7]): 1.8943 and 2.138; TR-FRET signal, individual replicate (CDK12–cyclin K and DDB1; [8]): 1.837 and 2.0323 |
| 0.1371 and 0.1443 | 0.1368 and 0.1484 | 0.135 and 0.1532 | 0.1341 and 0.1519 | 0.132 and 0.1491 | 0.1322 and 0.1487 | 0.1292 and 0.1438 | 0.1234 and 0.1372 | 0.1186 and 0.1335 | 0.1139 and 0.1272 | 0.1066 and 0.1169 |  |  |  | > 10000 nM | CC[C@H](CO)Nc1nc(NCc2ccc(-c3ccc(-c4ccccc4)cc3)cc2)c2ncn(C(C)C)c2n1 [DS04] | > 10000 nM | 0% | DDB1–CDK12 complex formation, result in words (CDK12–cyclin K and DDB1; in vitro TR-FRET): abolished binding |
| 0.139 and 0.157 | 0.1423 and 0.1615 | 0.1531 and 0.1764 | 0.1718 and 0.1914 | 0.1925 and 0.2133 | 0.2424 and 0.278 | 0.3125 and 0.3604 | 0.4172 and 0.4741 | 0.5249 and 0.5984 | 0.656 and 0.7191 | 0.5857 and 0.628 | 936 ± 112 nM | 935 nM | 935 nM | > 10000 nM | CC[C@H](CO)Nc1nc(NCc2ccc(-c3ccc4ccccc4c3)cc2)c2ncn(C(C)C)c2n1 [DS05] | > 10000 nM | 0% |  |
